Measurements: patent US9944602B2, “Piperidinone herbicides” (E. I. DU PONT DE NEMOURS AND COMPANY, priority 2014, dated 2018)

Assays:
Assay type in all cases: in vivo
[1] = system: barnyardgrass (Echinochloa crus-galli); test: Test A preemergence barnyardgrass; details: 0 to 100 scale, 0 no effect, 100 complete control
Procedure, shortened: (§1)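 Directed soil spray at planting gives preemergence data; foliar application to one- to two-leaf plants gives postemergence data. Response is visual injury relative to untreated controls about 10 d after treatment, scored 0–100.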

kochia (Kochia scoparia) [2] = test: Test A preemergence kochia; details: 0 to 100 scale, 0 no effect, 100 complete control
Procedure, shortened: as §1

[3] = system: ragweed (common ragweed, Ambrosia elatior); test: Test A preemergence ragweed; details: 0 to 100 scale, 0 no effect, 100 complete control
Procedure, shortened: as §1

[4] = system: ryegrass, Italian (Italian ryegrass, Lolium multiflorum); test: Test A preemergence ryegrass, Italian; details: 0 to 100 scale, 0 no effect, 100 complete control
Procedure, shortened: as §1

[5] = system: foxtail, giant (giant foxtail, Setaria faberii); test: Test A preemergence foxtail, giant; details: 0 to 100 scale, 0 no effect, 100 complete control
Procedure, shortened: as §1

[6] = system: pigweed (Amaranthus retroflexus); test: Test A preemergence pigweed; details: 0 to 100 scale, 0 no effect, 100 complete control
Procedure, shortened: as §1

[7] = system: barnyardgrass (Echinochloa crus-galli); test: Test A postemergence barnyardgrass; details: 0 to 100 scale, 0 is no effect, 100 is complete control
Procedure, shortened: as §1

kochia (Kochia scoparia) [8] = test: Test A postemergence kochia; details: 0 to 100 scale, 0 is no effect, 100 is complete control
Procedure, shortened: as §1

[9] = system: ragweed (common ragweed, Ambrosia elatior); test: Test A postemergence ragweed; details: 0 to 100 scale, 0 is no effect, 100 is complete control
Procedure, shortened: as §1

[10] = system: ryegrass, Italian (Italian ryegrass, Lolium multiflorum); test: Test A postemergence ryegrass, Italian; details: 0 to 100 scale, 0 is no effect, 100 is complete control
Procedure, shortened: as §1

[11] = system: foxtail, giant (giant foxtail, Setaria faberii); test: Test A postemergence foxtail, giant; details: 0 to 100 scale, 0 is no effect, 100 is complete control
Procedure, shortened: as §1

[12] = system: pigweed (Amaranthus retroflexus); test: Test A postemergence pigweed; details: 0 to 100 scale, 0 is no effect, 100 is complete control
Procedure, shortened: as §1

[13] = system: wheat (Triticum aestivum); test: Test A postemergence wheat; details: 0 to 100 scale, 0 is no effect, 100 is complete control
Procedure, shortened: as §1

corn (Zea mays) = test: Test A postemergence corn; details: 0 to 100 scale, 0 is no effect, 100 is complete control
Procedure, shortened: as §1

[14] = system: blackgrass (Alopecurus myosuroides); test: Test A postemergence blackgrass; details: 0 to 100 scale, 0 is no effect, 100 is complete control
Procedure, shortened: as §1

[15] = system: galium (catchweed bedstraw, Galium aparine); test: Test A postemergence galium; details: 0 to 100 scale, 0 is no effect, 100 is complete control
Procedure, shortened: as §1

rice (Oryza sativa) = test: Test B flooded paddy test rice; details: Table B, Flood, scale 0 to 100
Procedure, shortened: (§2)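 Visual injury relative to controls was scored after 13 to 15 d in the greenhouse. Treatment was by adding compound straight to flood water 3 cm deep, maintained for the whole test, on plants at the 2-leaf stage.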

[16] = system: sedge, umbrella (small-flower umbrella sedge, Cyperus difformis); test: Test B flooded paddy test sedge, umbrella; details: Table B, Flood, scale 0 to 100
Procedure, shortened: as §2

[17] = system: ducksalad (Heteranthera limosa); test: Test B flooded paddy test ducksalad; details: Table B, Flood, scale 0 to 100
Procedure, shortened: as §2

[18] = system: barnyardgrass (Echinochloa crus-galli); test: Test B flooded paddy test barnyardgrass; details: Table B, Flood, scale 0 to 100
Procedure, shortened: as §2

In the case of `O=C1NCCC(c2cccc(Cl)c2)C1C(=O)Nc1ccccc1C(F)(F)F` (racemic) [Compound 33], the “Barnyardgrass plant response rating” value ([1]; 125 g ai/ha) is reported as 50, the “Barnyardgrass plant response rating” value ([1]; 500 g ai/ha) is reported as 90 and the “Kochia plant response rating” value (kochia (Kochia scoparia) [2]; 125 g ai/ha) is reported as 0. For the same molecule, the “Kochia plant response rating” value (kochia (Kochia scoparia) [2]; 500 g ai/ha) was 30, the “Ragweed plant response rating” value ([3]; 125 g ai/ha) was 0 and the “Ragweed plant response rating” value ([3]; 500 g ai/ha) was 0. For the same molecule, the “Ryegrass, Italian plant response rating” value ([4]; 125 g ai/ha) was 0, the “Ryegrass, Italian plant response rating” value ([4]; 500 g ai/ha) was 0 and the “Foxtail, Giant plant response rating” value ([5]; 125 g ai/ha) was 70. For the same molecule, the “Foxtail, Giant plant response rating” value ([5]; 500 g ai/ha) was 90, the “Pigweed plant response rating” value ([6]; 125 g ai/ha) was 0 and the “Pigweed plant response rating” value ([6]; 500 g ai/ha) was 0. For the same molecule, the “Plant response rating, Barnyardgrass” value ([7]; 125 g ai/ha) was 60, the “Plant response rating, Barnyardgrass” value ([7]; 500 g ai/ha) was 90 and the “Plant response rating, Kochia” value (kochia (Kochia scoparia) [8]; 125 g ai/ha) was 0. For the same molecule, the “Plant response rating, Kochia” value (kochia (Kochia scoparia) [8]; 500 g ai/ha) was 0, the “Plant response rating, Ragweed” value ([9]; 125 g ai/ha) was 0 and the “Plant response rating, Ragweed” value ([9]; 500 g ai/ha) was 0. The “Plant response rating, Ryegrass, Italian” value ([10]; 125 g ai/ha) was 0, the “Plant response rating, Ryegrass, Italian” value ([10]; 500 g ai/ha) was 0 and the “Plant response rating, Foxtail, Giant” value ([11]; 125 g ai/ha) was 50. The “Plant response rating, Foxtail, Giant” value ([11]; 500 g ai/ha) was 90, the “Plant response rating, Pigweed” value ([12]; 125 g ai/ha) was 0 and the “Plant response rating, Pigweed” value ([12]; 500 g ai/ha) was 0. The “Plant response rating, Wheat” value ([13]; 125 g ai/ha) was 0, the “Plant response rating, Wheat” value ([13]; 500 g ai/ha) was 0 and the “Plant response rating, Corn” value (corn (Zea mays); 125 g ai/ha) was 0. For the same molecule, the “Plant response rating, Corn” value (corn (Zea mays); 500 g ai/ha) was 0, the “Plant response rating, Blackgrass” value ([14]; 125 g ai/ha) was 0 and the “Plant response rating, Blackgrass” value ([14]; 500 g ai/ha) was 0. For the same molecule, the “Plant response rating, Galium” value ([15]; 125 g ai/ha) was 0, the “Plant response rating, Galium” value ([15]; 500 g ai/ha) was 0 and the Plant response rating (rice (Oryza sativa); 500 g ai/ha) was 0. The Plant response rating ([16]; 500 g ai/ha) was 0, the Plant response rating ([17]; 500 g ai/ha) was 80 and the Plant response rating ([18]; 500 g ai/ha) was 20.
For `O=C(Nc1ccccc1C(F)(F)F)C1C(=O)N(Cc2ccccc2)CCC1c1ccc(F)cc1` (stereo not drawn) [Compound 51], the “Barnyardgrass plant response rating” value ([1]; 125 g ai/ha) was 0, the “Barnyardgrass plant response rating” value ([1]; 500 g ai/ha) was 0 and the “Kochia plant response rating” value (kochia (Kochia scoparia) [2]; 125 g ai/ha) was 0. The “Kochia plant response rating” value (kochia (Kochia scoparia) [2]; 500 g ai/ha) was 0, the “Ragweed plant response rating” value ([3]; 125 g ai/ha) was 0 and the “Ragweed plant response rating” value ([3]; 500 g ai/ha) was 0. The “Ryegrass, Italian plant response rating” value ([4]; 125 g ai/ha) was 0, the “Ryegrass, Italian plant response rating” value ([4]; 500 g ai/ha) was 0 and the “Foxtail, Giant plant response rating” value ([5]; 125 g ai/ha) was 0. For the same molecule, the “Foxtail, Giant plant response rating” value ([5]; 500 g ai/ha) was 0, the “Pigweed plant response rating” value ([6]; 125 g ai/ha) was 0 and the “Pigweed plant response rating” value ([6]; 500 g ai/ha) was 0. For the same molecule, the “Plant response rating, Barnyardgrass” value ([7]; 125 g ai/ha) was 0, the “Plant response rating, Barnyardgrass” value ([7]; 500 g ai/ha) was 0 and the “Plant response rating, Kochia” value (kochia (Kochia scoparia) [8]; 125 g ai/ha) was 0. For the same molecule, the “Plant response rating, Kochia” value (kochia (Kochia scoparia) [8]; 500 g ai/ha) was 0, the “Plant response rating, Ragweed” value ([9]; 125 g ai/ha) was 0 and the “Plant response rating, Ragweed” value ([9]; 500 g ai/ha) was 0. For the same molecule, the “Plant response rating, Ryegrass, Italian” value ([10]; 125 g ai/ha) was 0, the “Plant response rating, Ryegrass, Italian” value ([10]; 500 g ai/ha) was 0 and the “Plant response rating, Foxtail, Giant” value ([11]; 125 g ai/ha) was 0. For the same molecule, the “Plant response rating, Foxtail, Giant” value ([11]; 500 g ai/ha) was 0, the “Plant response rating, Pigweed” value ([12]; 125 g ai/ha) was 0 and the “Plant response rating, Pigweed” value ([12]; 500 g ai/ha) was 0. The “Plant response rating, Wheat” value ([13]; 125 g ai/ha) was 0, the “Plant response rating, Wheat” value ([13]; 500 g ai/ha) was 0 and the “Plant response rating, Corn” value (corn (Zea mays); 125 g ai/ha) was 0. For the same molecule, the “Plant response rating, Corn” value (corn (Zea mays); 500 g ai/ha) was 0, the “Plant response rating, Blackgrass” value ([14]; 125 g ai/ha) was 0 and the “Plant response rating, Blackgrass” value ([14]; 500 g ai/ha) was 0. The “Plant response rating, Galium” value ([15]; 125 g ai/ha) was 0, the “Plant response rating, Galium” value ([15]; 500 g ai/ha) was 0 and the Plant response rating (rice (Oryza sativa); 250 g ai/ha) was 0. It also gave a Plant response rating ([16]; 250 g ai/ha) of 0, a Plant response rating ([17]; 250 g ai/ha) of 0 and a Plant response rating ([18]; 250 g ai/ha) of 0.
For `O=C1NCCC(c2cccc(Cl)c2)C1C(=O)Nc1ccccc1F` (racemic) [Compound 34], the “Barnyardgrass plant response rating” value ([1]; 125 g ai/ha) was 40, the “Barnyardgrass plant response rating” value ([1]; 500 g ai/ha) was 90 and the “Kochia plant response rating” value (kochia (Kochia scoparia) [2]; 125 g ai/ha) was 0. The “Kochia plant response rating” value (kochia (Kochia scoparia) [2]; 500 g ai/ha) was 30, the “Ragweed plant response rating” value ([3]; 125 g ai/ha) was 0 and the “Ragweed plant response rating” value ([3]; 500 g ai/ha) was 30. For the same molecule, the “Ryegrass, Italian plant response rating” value ([4]; 125 g ai/ha) was 0, the “Ryegrass, Italian plant response rating” value ([4]; 500 g ai/ha) was 0 and the “Foxtail, Giant plant response rating” value ([5]; 125 g ai/ha) was 50. The “Foxtail, Giant plant response rating” value ([5]; 500 g ai/ha) was 90, the “Pigweed plant response rating” value ([6]; 125 g ai/ha) was 0 and the “Pigweed plant response rating” value ([6]; 500 g ai/ha) was 30. For the same molecule, the “Plant response rating, Barnyardgrass” value ([7]; 125 g ai/ha) was 40, the “Plant response rating, Barnyardgrass” value ([7]; 500 g ai/ha) was 90 and the “Plant response rating, Kochia” value (kochia (Kochia scoparia) [8]; 125 g ai/ha) was 0. The “Plant response rating, Kochia” value (kochia (Kochia scoparia) [8]; 500 g ai/ha) was 0, the “Plant response rating, Ragweed” value ([9]; 125 g ai/ha) was 0 and the “Plant response rating, Ragweed” value ([9]; 500 g ai/ha) was 0. For the same molecule, the “Plant response rating, Ryegrass, Italian” value ([10]; 125 g ai/ha) was 0, the “Plant response rating, Ryegrass, Italian” value ([10]; 500 g ai/ha) was 0 and the “Plant response rating, Foxtail, Giant” value ([11]; 125 g ai/ha) was 40. The “Plant response rating, Foxtail, Giant” value ([11]; 500 g ai/ha) was 80, the “Plant response rating, Pigweed” value ([12]; 125 g ai/ha) was 0 and the “Plant response rating, Pigweed” value ([12]; 500 g ai/ha) was 0. For the same molecule, the “Plant response rating, Wheat” value ([13]; 125 g ai/ha) was 0, the “Plant response rating, Wheat” value ([13]; 500 g ai/ha) was 0 and the “Plant response rating, Corn” value (corn (Zea mays); 125 g ai/ha) was 0. The “Plant response rating, Corn” value (corn (Zea mays); 500 g ai/ha) was 0, the “Plant response rating, Blackgrass” value ([14]; 125 g ai/ha) was 0 and the “Plant response rating, Blackgrass” value ([14]; 500 g ai/ha) was 0. For the same molecule, the “Plant response rating, Galium” value ([15]; 125 g ai/ha) was 0, the “Plant response rating, Galium” value ([15]; 500 g ai/ha) was 0 and the Plant response rating (rice (Oryza sativa); 500 g ai/ha) was 0. For the same molecule, the Plant response rating ([16]; 500 g ai/ha) was 0, the Plant response rating ([17]; 500 g ai/ha) was 40 and the Plant response rating ([18]; 500 g ai/ha) was 0.
